In patent US20200278355A1, “CONJUGATED PROTEINS AND USES THEREOF” (THE SCRIPPS RESEARCH INSTITUTE, priority 2017, published 2020):

Experiments:
[1] = test system: cysteines in NSCLC cell proteomes (H460 cells); assay: isoTOP-ABPP of compound-treated H460 cells, proteome-wide; assay type: cell-based, human; conditions: KEAP1-mutant NSCLCs
Description: For analysis of NR0B1 ligands or control compound reactivity, H460 cells or H460 cells expressing luciferase in a 10 cm plate were incubated with indicated compounds in serum/dye-free RPMI for 3 hours at 37° C. Cells were washed once ice-cold PBS and lysed in 1% Triton X-100 dissolved in PBS with protease inhibitors (Sigma) by sonication. Samples were clarified by centrifugation for 10 min at 16,000×g. Lysate was adjusted to 1.5 mg ml^−1 in 500 μL.
Samples were labeled for 1 h at ambient temperature with 100 μM iodoacetamide alkyne (1, IA-alkyne, 5 μL of 10 mM stock in DMSO). Samples were conjugated by copper-catalyzed azide-alkyne cycloaddition (CuAAC) to isotopically labeled, TEV-cleavable tags (TEV-tags). Heavy CuAAC reaction mixtures was added to the DMSO-treated or shGFP control samples and light CuAAC reaction mixture was added to compound-treated or shNRF2 samples. The CuAAC reaction mixture consisted of TEV tags (light or heavy, 10 μL of 5 mM stocks in DMSO, final concentration=100 μM), 1 mM tris(2-carboxyethyl)phosphine hydrochloride (TCEP; fresh 50× stock in water, final concentration=1 mM), ligand (17× stock in DMSO:t-butanol 1:4, final concentration=100 μM) and 1 mM CuSO4 (50× stock in water, final concentration=1 mM). The samples were allowed to react for 1 h at which point the samples were centrifuged (16,000×g, 5 min, 4° C.). […]

[2] = target: T1, interactions of FLAG-tagged RBM45 or SNW1 with endogenous NR0B1 (Homo sapiens, UniProt P51843); assay: NR0B1 protein interactions in compound-treated cells (FLAG immunoprecipitation, immunoblot); assay type: cell-based; conditions: for blockade of interactions of FLAG-tagged RBM45 or SNW1 with endogenous NR0B1: KEAP1-null HEK293T cells and KEAP1-mutant NSCLC cells; for blockade of interactions of FLAG-tagged RBM45 or SNW1 with endogenous NR0B1 / inhibition of NR0B1 interaction with FLAG-RBM45 or FLAG-SNW1: 3 h; for inhibition of NR0B1 interaction with FLAG-RBM45 or FLAG-SNW1: KEAP1-null HEK293T cells
T1 construct: endogenous in cells; host or cells: KEAP1-null HEK293T cells stably expressing FLAG-RBM45 or FLAG-SNW1
T1 sequence (P51843 1-470): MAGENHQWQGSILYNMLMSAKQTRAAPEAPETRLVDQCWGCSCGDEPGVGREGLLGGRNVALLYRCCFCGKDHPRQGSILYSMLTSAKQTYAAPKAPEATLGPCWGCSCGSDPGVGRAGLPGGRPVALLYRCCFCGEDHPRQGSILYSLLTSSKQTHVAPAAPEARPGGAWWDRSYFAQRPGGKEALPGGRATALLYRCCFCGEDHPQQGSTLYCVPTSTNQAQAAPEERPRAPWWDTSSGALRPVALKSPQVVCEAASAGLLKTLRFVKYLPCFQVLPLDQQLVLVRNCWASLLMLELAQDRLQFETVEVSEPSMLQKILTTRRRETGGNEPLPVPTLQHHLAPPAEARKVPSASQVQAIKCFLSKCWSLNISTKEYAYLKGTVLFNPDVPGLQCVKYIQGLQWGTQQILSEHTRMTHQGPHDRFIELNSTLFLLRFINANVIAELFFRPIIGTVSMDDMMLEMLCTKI
Description: Confluent 10 cm plates of indicated cell lines were rinsed once with warm PBS and incubated in serum/dye-free RPMI with indicated compounds or vehicle for 3 h at 37° C. Cells were washed once ice-cold PBS and snap frozen.
Cells were rinsed once with ice-cold PBS, and lysed by sonication in Triton IP buffer. Lysates were clarified by centrifugation at 16,000×g for 10 min. Samples were normalized to 1 mg ml^−1 and boiled following the addition of sample buffer. For FLAG- or HA-immunoprecipitations, FLAG or HA resins (30 μL, 50:50 slurry) were added to the pre-cleared lysates and incubated with rotation for 3 hours at 4° C. Following immunoprecipitation, the beads were washed once with IP buffer followed by 3 times with IP buffer containing 500 mM NaCl. Loading buffer (40 μL) was added to the immunoprecipitated proteins which were subsequently denatured by boiling. Proteins were resolved by SDS-PAGE, analyzed by immunoblotting and relative band intensities were quantified using ImageJ software.
Next it was asked whether BPK-26 and BPK-29 inhibited NR0B1 protein interactions in cells using two complementary systems. […] In both cell systems, BPK-26 and BPK-29, but not control compounds, blocked the interactions of FLAG-tagged RMB45 or SNW1 with endogenous NR0B1 (FIG. 6C and FIG. 12E-F).

Compound	overall proteomic selectivity [1]	blockade of interactions of FLAG-tagged RBM45 or SNW1 with endogenous NR0B1 [2]	inhibition of NR0B1 interaction with FLAG-RBM45 or FLAG-SNW1 [2]	relative potency for blockade of NR0B1-protein interactions ([2]; in cells)
O=C(c1ccc(N2CCOCC2)cc1)N1CCCC(N(Cc2ccccc2)C(=O)CCl)CC1 (stereo not shown) [BPK-29, N-benzyl-2-chloro-N-(1-(4-morpholinobenzoyl)azepan-4-yl)acetamide]	good overall proteomic selectivity	blocked	inhibit	better potency than BPK-26
O=C(CCl)N(Cc1cccc(Cl)c1F)c1ccc(Cl)nc1 [BPK-26, 2-chloro-N-(3-chloro-2-fluorobenzyl)-N-(6-chloropyridin-3-yl)acetamide]	good overall proteomic selectivity	blocked	inhibit	–
